From paper PMC10999543, “Identification of kinase modulators as host-directed therapeutics against intracellular methicillin-resistant Staphylococcus aureus” (Frontiers in Cellular and Infection Microbiology, 2024)
Where two headings read alike, the source gives them in different places.

Key:
[1] = system: HeLa cells; test: Compound screen by flow cytometry: HeLa cell count as surrogate readout of cell viability (z-scoreHeLa); type: cell-based, human
Protocol: (§1) The cells were resuspended in cell culture medium without antibiotics, seeded with 10,000 cells/well into Costar flat-bottom 96-well plates (Corning, Amsterdam, the Netherlands), and were incubated overnight at 37°C/5% CO2. The next day, the bacteria were centrifuged at ≥1800 g for 15 min and resuspended in cold PBS + 5 mM ethylenediaminetetraacetic acid (EDTA). The number of CFUs present in the bacterial suspension was estimated from the optical density at 600 nm (OD600) by assuming 8x10^8 CFUs to be present in a bacterial suspension with OD600 = 1, based on prior titrations. The bacterial suspension was diluted in cell culture medium without antibiotics and added to the cells. Accuracy of the multiplicity of infection (MOI) was validated by plating serial dilutions of the MRSA inoculums on Difco TS agar plates (BD Biosciences). The calculated mean MOI throughout all experiments was 6.8 ± 4.6 (mean ± SD). Infected cells were centrifuged for 3 min at 150 g and incubated for 1 hour at 37°C/5% CO2. Next, the cells were incubated with fresh cell culture medium supplemented with 30 µg/ml gentamicin sulphate (Lonza BioWhittaker, Basel, Switzerland) for 15 min at 37°C/5% CO2 to kill residual extracellular bacteria. Infected cells were incubated overnight at 37°C/5% CO2 in cell culture medium in the presence of kinase inhibitors and 5 µg/ml gentamicin sulphate-containing medium to prevent the growth of extracellular bacteria. The solvent of the compounds, DMSO, was used at equal % v/v as a negative control. For the screen, each compound was tested in triplicate, on separate cell culture plates, resulting in triplicate values for each kinase inhibitor.
(§2) HeLa cells were harvested by trypsinization and fixed with 1% paraformaldehyde. Samples were measured on a FACSLyric with HTS extension (BD Biosciences). Flow cytometry data were analysed using FlowJo version 10 (TreeStar, Ashland, OR, USA). HeLa cells positive for GFP were gated to calculate the percentage of MRSA-infected cells. The cell count was used as surrogate readout of cell viability.
To minimize the possibility that the presence of extreme values on a plate affected the z-scores, raw values that deviated two-fold from the negative controls were excluded when calculating plate means and standard deviations as used in the aforementioned formula. Compounds were considered a “hit” when z-scoreMRSA+ ≤ -2 and z-scoreHeLa ≥ -3 for cell count. In cases where compounds were screened twice, the average values were used to select hit compounds.

[2] = system: intracellular MRSA; type: cell-based, Staphylococcus aureus; details: for %GFP+ rep 1 / z-scoreMRSA+ rep 1: replicate 1; for %GFP+ rep 2 / z-scoreMRSA+ rep 2: replicate 2; for %GFP+ rep 3 / z-scoreMRSA+ rep 3: replicate 3; for z-scoreMRSA+ mean: mean of 3 replicates
Protocol: as §1, §2
To identify potential “hit” compounds, the flow cytometry data were used to calculate standard z-scores using z = (x-μ)/σ – zneg, where x is total event count or the percent of GFP-positive cells from a single well, μ is the mean from wells of the plate, σ is the standard deviation of the plate and zneg is the mean z-score of the negative control of the plate (i.e., DMSO) ([Korbee et al., 2018]). To minimize the possibility that the presence of extreme values on a plate affected the z-scores, raw values that deviated two-fold from the negative controls were excluded when calculating plate means and standard deviations as used in the aforementioned formula. Compounds were considered a “hit” when z-scoreMRSA+ ≤ -2 and z-scoreHeLa ≥ -3 for cell count. In cases where compounds were screened twice, the average values were used to select hit compounds.

[3] = PKIS compounds raw data, replicate 1, HeLa cell count
[4] = PKIS compounds raw data, replicate 2, HeLa cell count
[5] = PKIS compounds raw data, replicate 3, HeLa cell count
[6] = compound screen, HeLa cell count, mean of 3 replicates
[7] = compound screen, HeLa cell count, replicate 1
[8] = compound screen, HeLa cell count, replicate 2
[9] = compound screen, HeLa cell count, replicate 3
[10] = PKIS compounds raw data, MRSA-infected HeLa cells
[11] = Yes/No: effect without cell death
[12] = compound screen, MRSA-infected HeLa cells
[13] = PKIS compound screen raw data, HeLa cell count, replicate 1
[14] = PKIS compound screen raw data, HeLa cell count, replicate 2
[15] = PKIS compound screen raw data, HeLa cell count, replicate 3
[16] = PKIS compound screen, HeLa cell count, mean of 3 replicates
[17] = PKIS compound screen, HeLa cell count, replicate 1
[18] = PKIS compound screen, HeLa cell count, replicate 2
[19] = PKIS compound screen, HeLa cell count, replicate 3
[20] = PKIS compound screen, Yes/No call on z-scoreHeLa
[21] = PKIS compound screen raw data, MRSA-infected HeLa cells
[22] = PKIS compound screen, MRSA-infected HeLa cells
[23] = PKIS compound screen, Yes/No call (effect without cell death)
[24] = PKIS compound screen, Yes/No call on z-scoreMRSA+
[25] = PKIS compound screen, Yes/No call
[26] = PKIS compound screen, mean of 3 replicates
[27] = PKIS compound screen, replicate 1
[28] = PKIS compound screen, replicate 2
[29] = PKIS compound screen, replicate 3

CN(C)C(=O)O[C@@H]1CN[C@@H](C#Cc2cc3ncnc(Nc4ccc(OCc5cccc(F)c5)c(Cl)c4)c3s2)C1 [GSK238063A]
cell count rep 1 [1, 3]: 3194
cell count rep 2 [1, 4]: 3723
cell count rep 3 [1, 5]: 4546
cell death ([1]; Yes/No call from z-scoreHeLa): No
z-scoreHeLa mean [1, 6]: -1.00
z-scoreHeLa rep 1 [1, 7]: -1.43
z-scoreHeLa rep 2 [1, 8]: -0.41
z-scoreHeLa rep 3 [1, 9]: -1.16
%GFP+ rep 1 [2, 10]: 8.6%
%GFP+ rep 2 [2, 10]: 9.6%
%GFP+ rep 3 [2, 10]: 9.8%
effect ([2]; Yes/No call from z-scoreMRSA+): No
hit [2, 11]: No
z-scoreMRSA+ mean [2, 12]: -1.52
z-scoreMRSA+ rep 1 [2, 12]: -1.46
z-scoreMRSA+ rep 2 [2, 12]: -1.30
z-scoreMRSA+ rep 3 [2, 12]: -1.81

CS(=O)(=O)CCNCc1cc(-c2cc3c(Nc4ccc(OCc5cccc(F)c5)c(Cl)c4)ncnc3s2)cs1 [GSK300014A]
cell count rep 1 [1, 13]: 28943
cell count rep 2 [1, 14]: 38150
cell count rep 3 [1, 15]: 46044
z-scoreHeLa mean [1, 16]: 0.95
z-scoreHeLa rep 1 [1, 17]: 1.34
z-scoreHeLa rep 2 [1, 18]: 0.63
z-scoreHeLa rep 3 [1, 19]: 0.88
cell death [1, 20]: No
%GFP+ rep 1 [2, 21]: 19.5%
%GFP+ rep 2 [2, 21]: 21.9%
%GFP+ rep 3 [2, 21]: 21.6%
z-scoreMRSA+ mean [2, 22]: 0.70
z-scoreMRSA+ rep 1 [2, 22]: 0.52
z-scoreMRSA+ rep 2 [2, 22]: 1.02
z-scoreMRSA+ rep 3 [2, 22]: 0.55
hit [2, 23]: No
effect [2, 24]: No

COc1cc2c(Nc3ccc(NC(=O)c4ccccc4)cc3)ncnc2cc1OCCCN1CCOCC1 [GSK301329A]
cell death [1]: No
cell count rep 1 ([1]; human): 4010
cell count rep 2 ([1]; human): 4052
cell count rep 3 ([1]; human): 5236
z-scoreHeLa mean ([1]; human): -0.15
z-scoreHeLa rep 1 ([1]; human): -0.25
z-scoreHeLa rep 2 ([1]; human): -0.19
z-scoreHeLa rep 3 ([1]; human): -0.00157
%GFP+ rep 1 [2, 21]: 25.2%
%GFP+ rep 2 [2, 21]: 24.6%
%GFP+ rep 3 [2, 21]: 21.9%
effect ([2]; Yes/No call from z-scoreMRSA+): No
hit [2, 11]: No
z-scoreMRSA+ mean [2, 12]: 0.13
z-scoreMRSA+ rep 1 [2, 12]: -0.0173
z-scoreMRSA+ rep 2 [2, 12]: 0.48
z-scoreMRSA+ rep 3 [2, 12]: -0.09

O=S(=O)(c1cccc(F)c1)c1ccc(Nc2ncnc3cc(Br)sc23)cc1Cl [GSK306886A]
cell count rep 1 [1, 3]: 2697
cell count rep 2 [1, 4]: 1761
cell count rep 3 [1, 5]: 5093
cell death ([1]; Yes/No call from z-scoreHeLa): No
z-scoreHeLa mean [1, 6]: -1.56
z-scoreHeLa rep 1 [1, 7]: -1.88
z-scoreHeLa rep 2 [1, 8]: -1.89
z-scoreHeLa rep 3 [1, 9]: -0.89
%GFP+ rep 1 [2, 10]: 13.2%
%GFP+ rep 2 [2, 10]: 13.8%
%GFP+ rep 3 [2, 10]: 13.0%
effect ([2]; Yes/No call from z-scoreMRSA+): No
hit [2, 11]: No
z-scoreMRSA+ mean [2, 12]: -0.25
z-scoreMRSA+ rep 1 [2, 12]: 0.00934
z-scoreMRSA+ rep 2 [2, 12]: 0.10
z-scoreMRSA+ rep 3 [2, 12]: -0.85

CS(=O)(=O)Cc1ccc(Nc2nccc(-c3c(-c4cccc(NC(=O)C5CCCCC5)c4)nn4ncccc34)n2)cc1 [GSK350559A]
cell count rep 1 [1, 13]: 4919
cell count rep 2 [1, 14]: 4109
cell count rep 3 [1, 15]: 4941
cell death ([1]; Yes/No call from z-scoreHeLa): No
z-scoreHeLa mean [1, 6]: 0.0244
z-scoreHeLa rep 1 [1, 7]: 0.41
z-scoreHeLa rep 2 [1, 8]: -0.15
z-scoreHeLa rep 3 [1, 9]: -0.19
%GFP+ rep 1 [2, 21]: 15.3%
%GFP+ rep 2 [2, 21]: 15.9%
%GFP+ rep 3 [2, 21]: 16.3%
effect ([2]; Yes/No call from z-scoreMRSA+): No
hit [2, 11]: No
z-scoreMRSA+ mean [2, 12]: -1.91
z-scoreMRSA+ rep 1 [2, 12]: -2.32
z-scoreMRSA+ rep 2 [2, 12]: -1.63
z-scoreMRSA+ rep 3 [2, 12]: -1.77

Cc1n[nH]c2ccc(-c3cc(OC[C@@H](N)Cc4ccccc4)cnc3-c3ccoc3)cc12 [GSK507358A]
cell death [1, 25]: No
z-scoreHeLa mean [1, 26]: 1.21
z-scoreHeLa rep 1 [1, 27]: 1.04
z-scoreHeLa rep 2 [1, 28]: 1.55
z-scoreHeLa rep 3 [1, 29]: 1.04
cell count rep 1 [1, 3]: 7770
cell count rep 2 [1, 4]: 8336
cell count rep 3 [1, 5]: 7240
effect [2, 25]: No
hit [2, 23]: No
z-scoreMRSA+ mean ([2]; PKIS compound screen): -1.58
z-scoreMRSA+ rep 1 ([2]; PKIS compound screen): -1.88
z-scoreMRSA+ rep 2 ([2]; PKIS compound screen): -1.31
z-scoreMRSA+ rep 3 ([2]; PKIS compound screen): -1.55
%GFP+ rep 1 [2, 10]: 17.4%
%GFP+ rep 2 [2, 10]: 19.2%
%GFP+ rep 3 [2, 10]: 18.9%

Cc1ccc(S(=O)(=O)Nc2ccc(Nc3nccc(Nc4cccc5[nH]ncc45)n3)cc2)cc1 [GSK581271A]
cell death [1, 25]: No
z-scoreHeLa mean [1, 26]: 0.40
z-scoreHeLa rep 1 [1, 27]: 0.33
z-scoreHeLa rep 2 [1, 28]: 0.35
z-scoreHeLa rep 3 [1, 29]: 0.51
cell count rep 1 [1, 3]: 6603
cell count rep 2 [1, 4]: 6528
cell count rep 3 [1, 5]: 6401
effect [2, 25]: No
hit [2, 23]: No
z-scoreMRSA+ mean ([2]; PKIS compound screen): -0.30
z-scoreMRSA+ rep 1 ([2]; PKIS compound screen): -0.62
z-scoreMRSA+ rep 2 ([2]; PKIS compound screen): 0.0118
z-scoreMRSA+ rep 3 ([2]; PKIS compound screen): -0.29
%GFP+ rep 1 [2, 10]: 23.9%
%GFP+ rep 2 [2, 10]: 26.1%
%GFP+ rep 3 [2, 10]: 25.7%

CS(=O)(=O)Nc1ccc(-c2cc(-c3ccccc3)cc(C(N)=O)c2N)cc1 [GSK586581A]
cell count rep 1 [1, 13]: 20516
cell count rep 2 [1, 14]: 41456
cell count rep 3 [1, 15]: 41123
z-scoreHeLa mean [1, 16]: 0.47
z-scoreHeLa rep 1 [1, 17]: 0.06
z-scoreHeLa rep 2 [1, 18]: 1.24
z-scoreHeLa rep 3 [1, 19]: 0.09
cell death [1, 20]: No
%GFP+ rep 1 [2, 21]: 17.7%
%GFP+ rep 2 [2, 21]: 16.5%
%GFP+ rep 3 [2, 21]: 20.3%
z-scoreMRSA+ mean [2, 22]: -0.17
z-scoreMRSA+ rep 1 [2, 22]: -0.05
z-scoreMRSA+ rep 2 [2, 22]: -0.61
z-scoreMRSA+ rep 3 [2, 22]: 0.16
hit [2, 23]: No
effect [2, 24]: No

CNC(=O)c1cc(-c2ccc(F)cc2)cc(-c2ccc(S(=O)(=O)N3CCCC3)cc2)c1N [GSK635416A]
cell death [1, 25]: No
z-scoreHeLa mean [1, 26]: -0.10
z-scoreHeLa rep 1 [1, 27]: -0.27
z-scoreHeLa rep 2 [1, 28]: 0.000722
z-scoreHeLa rep 3 [1, 29]: -0.04
cell count rep 1 [1, 3]: 4473
cell count rep 2 [1, 4]: 4269
cell count rep 3 [1, 5]: 6877
effect [2, 25]: No
hit [2, 23]: No
z-scoreMRSA+ mean ([2]; PKIS compound screen): -0.63
z-scoreMRSA+ rep 1 ([2]; PKIS compound screen): -0.38
z-scoreMRSA+ rep 2 ([2]; PKIS compound screen): -0.50
z-scoreMRSA+ rep 3 ([2]; PKIS compound screen): -1.00
%GFP+ rep 1 [2, 10]: 12.0%
%GFP+ rep 2 [2, 10]: 12.0%
%GFP+ rep 3 [2, 10]: 12.5%
